Reference: publication PMC2653189 (PLoS ONE, 2009)
Where two headings read alike, the source gives them in different places.

Key:
[1] = system: IFN-γ-mediated Stat1 phosphorylation; assay: Immunoblot of IFN-γ-mediated Stat1 phosphorylation in HepG2 cells; format: cell-based, human; details: compound 300 µM 1 hour, IFN-γ 30 ng/ml 30 min
Description: (§1) The human hepatocellular carcinoma cell line (HepG2) was grown in 6-well plates under standard conditions. Cells were pretreated with compounds (0, 1, 3, 10, 30, 100 and 300 µM) for 1 hour then stimulated under optimal conditions with either interleukin-6 (IL-6; 30 ng/ml for 30 min) to activate Stat3 or interferon gamma (IFN-γ; 30 ng/ml for 30 min) to activate Stat1 [28]. Cultures were then harvested and proteins extracted using high-salt buffer, as described. Briefly, extracts were mixed with 2× sodium dodecyl sulfate (SDS) sample buffer (125 mM Tris-HCL pH 6.8; 4% SDS; 20% glycerol; 10% 2-mercaptoethanol) at a 1∶1 ratio and heated for 5 minutes at 100°C. Proteins (20 µg) were separated by 7.5% SDS-PAGE and transferred to polyvinylidene fluoride (PVDF) membrane (Millipore, Waltham, MA) and immunoblotted. Prestained molecular weight markers (BioRad; Hercules, CA) were included in each gel. Membranes were probed serially with antibody against Stat1 pY701 or Stat3 pY705 followed by antibody against Stat1 or Stat3 (Transduction labs, Lexington, KY) then antibody against β–actin (Abcam, Cambridge, MA). Membranes were stripped between antibody probing using Restore™ Western Blot Stripping Buffer (Thermo Fisher Scientific Inc., Waltham, MA) per the manufacturer's instructions. Horseradish peroxidase-conjugated goat-anti-mouse IgG was used as the secondary antibody (Invitrogen Carlsbad, CA) and the membranes were developed with enhanced chemiluminescence (ECL) detection system (Amersham Life Sciences Inc.; Arlington Heights, IL.).
Figure 2 Effect of compounds on ligand-mediated Stat3 and Stat1 phosphorylation. […] Cells were then stimulated with IL-6 (30 ng/ml) for 30 min. Protein extracts of cells were separated by SDS-PAGE, blotted and developed serially with antibodies to pStat3, total Stat3 and β-actin. Blots were stripped between each antibody probing. Band intensities were quantified by densitometry. The value of each pStat3 band was divided by its corresponding total Stat3 band intensity; the results were normalized to the DMSO-treated control value. This value was plotted as a function of the log compound concentration. The best-fitting curve was determined using 4-Parameter Logistic Model/Dose Response/XLfit 4.2, IDBS software and was used to calculate the IC50 value (Table 1). Each panel is representative of 3 or more experiments. In panel G, HepG2 cells were pretreated with DMSO alone or DMSO containing each of the compounds at a concentration of 300 µM for 60 min. Cells were then stimulated with IFN-γ (30 ng/ml) for 30 min. Protein extracts of cells were separated by SDS-PAGE and immunoblotted serially with antibodies to pStat1, total Stat1 and β-actin. Blots were stripped between each immunoblotting. The results shown are representative of 2 or more experiments.

MCF7 = assay: Breast cancer cell line apoptosis assay (nucleosome ELISA); format: cell-based; details: Homo sapiens, 24 hr, read-out: EC50 apoptosis induction
Description: (§2) Human breast carcinoma cell lines MDA-MB-468, MDA-MB-231, MBA-MD-435 and MCF7 were kindly provided by Dr. Powel H. Brown (Breast Cancer Center, Baylor College of Medicine). Breast cancer cell line, MDA-MB-453 was kindly provided by Dr. Shou Jiang (Breast Cancer Center, Baylor College of Medicine). All cell lines were grown in DMEM medium supplemented with 10% fetal bovine serum (FBS), 25,000 units penicillin G, 25,000 µg streptomycin, and 131.4 mg L-Glutamine and cultured in the incubator under the condition of 95% air, 5% CO2 at 37°C [33]. Cells were seeded at 2,500 cells/cm^2 into 12-well plates. At 80% confluency, cells were washed with PBS and supplemented with fresh medium containing compound or the topoisomerase I-inhibitor, camptothecin, at 0, 0.1, 0.3, 1, 3, 10, 30, 100, 300 µM. At 24 hours, treatment was terminated by removing the medium from each well. Cells were lysed with cell lysis buffer (600 µl for 30 minutes at 25°C). Cell lysate (200 µl) was centrifuged at 200 g for 10 minutes and 20 µl of each supernatant was assayed for nucleosomes using the Cell Death Detection ELISA (Roche Applied Science) as described by the manufacturer. The percent maximum nucleosome level was calculated by dividing the nucleosome level by the maximum nucleosome level achieved in the assay and multiplying by 100. This value was plotted as a function of the log compound concentration and the best-fitting curve and EC50 value determined using 4-Parameter Logistic Model/Dose Response/XLfit 4.2, IDBS software.
(§3) Figure 5 Apoptosis induction of breast cancer cell lines by compounds; selective apoptosis of cell lines that are Stat3 dependent. MDA-MB-468 (panel A), MDA-MB-231 (panel B), MDA-MB-435 (panel C), MCF7 (panel D) and MDA-MB-453 (panel E) were seeded in 12-well plates, grown overnight then treated with the indicated compound for 24 hr. Cells were centrifuged and the supernatants assayed for nucleosome levels by ELISA. The percent maximum nucleosome level was calculated (nucleosome level ÷ maximum nucleosome level achieved in the assay ×100) and plotted as a function of the log compound concentration. The best-fitting curve was determined using 4-ParameterLogistic Model/Dose Response One Site/XLfit 4.2, IDBS software and was used to determine the EC50 value (Table 3).

MDA-MB-231 = assay: as above; format: cell-based; details: Homo sapiens, 24 hr, read-out: EC50 apoptosis induction
Description: as §2, §3

MDA-MB-435 = assay: as above; format: cell-based; details: Homo sapiens, 24 hr, read-out: EC50 apoptosis induction
Description: as §2, §3

MDA-MB-453 = assay: as above; format: cell-based; details: Homo sapiens, 24 hr, read-out: EC50 apoptosis induction
Description: as §2, §3

MDA-MB-468 = assay: as above; format: cell-based; details: Homo sapiens, 24 hr, read-out: EC50 apoptosis induction
Description: as §2, §3

[2] = system: breast cancer cell lines with constitutive Stat3 activity—MDA-MB-468, MDA-MB-231 and MDA-MB-435; assay: Apoptosis assay, summary over the cell lines with constitutive Stat3 activity; format: cell-based; details: Homo sapiens
Description: as §2, with “100.” for “100. This value was plotted as a function of the log compound concentration and the best-fitting curve and EC50 value determined using 4-Parameter Logistic Model/Dose Response/XLfit 4.2, IDBS software.”
as §3, with “MDA-MB-468” for “Figure 5 Apoptosis induction of breast cancer cell lines by compounds; selective apoptosis of cell lines that are Stat3 dependent. MDA-MB-468”

[3] = system: cell lines MDA-MB-453 and MCF7; assay: Apoptosis assay, summary over the cell lines without constitutive Stat3 activity; format: cell-based; details: Homo sapiens
Description: as §2, with “100.” for “100. This value was plotted as a function of the log compound concentration and the best-fitting curve and EC50 value determined using 4-Parameter Logistic Model/Dose Response/XLfit 4.2, IDBS software.”
as §3, with “MDA-MB-468” for “Figure 5 Apoptosis induction of breast cancer cell lines by compounds; selective apoptosis of cell lines that are Stat3 dependent. MDA-MB-468”

Stat3 = Stat3 (Homo sapiens, UniProt P40763); assay: Stat3/pY-peptide binding assay (SPR, BIAcore)
Description: A control (Stat3 with DMSO but without compound) was run at the beginning and the end of each cycle (40 sample injections) to ensure that the integrity of the sensor chip was maintained throughout the cycle run. The average of the two controls was normalized to 100% and used to evaluate the effect of each compound on Stat3 binding. Responses were normalized by dividing the value at 2 min by the response obtained in the absence of compounds at 2 min and multiplying by 100.

[4] = system: IL-6-mediated phosphorylation of Stat3; assay: Immunoblot of IL-6-mediated Stat3 phosphorylation in HepG2 cells; format: cell-based; details: Homo sapiens, compound 60 min, then IL-6 30 ng/ml 30 min, read-out: pStat3 IC50, inhibition of IL-6-mediated Stat3 phosphorylation
Description: as §1
Figure 2 Effect of compounds on ligand-mediated Stat3 and Stat1 phosphorylation. […] Cells were then stimulated with IL-6 (30 ng/ml) for 30 min. Protein extracts of cells were separated by SDS-PAGE, blotted and developed serially with antibodies to pStat3, total Stat3 and β-actin. Blots were stripped between each antibody probing. Band intensities were quantified by densitometry. […] The best-fitting curve was determined using 4-Parameter Logistic Model/Dose Response/XLfit 4.2, IDBS software and was used to calculate the IC50 value (Table 1). […]

[5] = system: IL-6-mediated Stat3 nuclear translocation (GFP-Stat3α); assay: HTFM nuclear translocation assay in MEF/GFP-Stat3α cells; format: cell-based, murine
Description: Confocal and high-throughput fluorescence microscopy (HTFM) of MEF/GFP-Stat3α cells were performed as described. Briefly, for confocal fluorescence microscopy, cells were grown in 6-well plates containing a cover slip. For HTFM, cells were seeded into 96-well CC3 plates at a density of 5,000 cells/well using an automated plating system. Cells were cultured under standard conditions until 85–90% confluent. Cells were pre-treated with compound for 1 hour at 37°C then stimulated with IL-6 (200 ng/ml) and IL-6sR (250 ng/ml) for 30 minutes to provide optimal Stat3 activation and nuclear translocation in these cells, as described. Cells were fixed with 4% formaldehyde in PEM Buffer (80 mM Potassium PIPES, pH 6.8, 5 mM EGTA pH 7.0, 2 mM MgCl2) for 30 minutes at 4°C, quenched in 1 mg/ml of NaBH4 (Sigma) in PEM buffer and counterstained for 1 min in 4,6-diamidino-2-phenylindole (DAPI; Sigma; 1 mg/ml) in PEM buffer. Cover slips were examined by confocal fluorescent microscopy. Plates were analyzed by automated HTFM using the Cell Lab IC Image Cytometer (IC100) platform and Cytoshop Version 2.1 analysis software (Beckman Coulter). Nuclear translocation is quantified by using the fraction localized in the nucleus (FLIN) measurement. FLIN values were normalized by subtracting the FLIN for unstimulated cells then dividing this difference by the maximum difference (delta, Δ) in FLIN (FLIN in cells stimulated with IL-6/sIL-6R in the absence of compound minus FLIN of unstimulated cells). This ratio was multiplied by 100 to obtain the percentage of maximum difference in FLIN and was plotted, where indicated, as a function of the log compound concentration. The best-fitting curve and IC50 value were determined using 4-Parameter Logistic Model/Dose Response/XLfit 4.2, IDBS software.
Figure 4 Inhibition of cytoplasmic-to-nuclear translocation of Stat3 assessed by confocal and high-throughput fluorescence microscopy (HTFM). […] Coverslips were examined by confocal fluorescent microscopy using filters to detect GFP (column one), DAPI (column two) or both (merge; column three). In panel B, MEF-GFP-Stat3 cells were grown in 96-well plates with optical glass bottoms and pre-treated with the indicated compound at the indicated concentrations in quadruplicate for 1 hour then stimulated with IL-6 (200 ng/ml) and IL-6sR (250 ng/ml) for 30 minutes. Cells were fixed and the plates were examined by high-throughput microscopy to determine the fluorescence intensity in the nucleus (FLIN). The percent of maximum change (delta, Δ) in FLIN was calculated as described in the Methods and plotted as a function of the log of the compound concentration. […] Best-fit curves were determined using 4-Parameter Logistic Model/Dose Response/XLfit 4.2, IDBS software and were used to calculate the IC50 values (Table 2).

[6] = system: breast cancer cell lines tested; assay: Apoptosis assay, all breast cancer cell lines tested; format: cell-based, Human; details: any of the breast cancer cell lines tested; data not shown
Description: as §2, with “Cell lysate (200 µl) was centrifuged at 200 g for 10 minutes and 20 µl of each supernatant was assayed for nucleosomes using the Cell Death Detection ELISA (Roche Applied Science) as described by the manufacturer.” left out

[7] = 24 hr, read-out: EC50 apoptosis induction, range over three cell lines

Sequence of Stat3 (P40763 whole entry, species assumed): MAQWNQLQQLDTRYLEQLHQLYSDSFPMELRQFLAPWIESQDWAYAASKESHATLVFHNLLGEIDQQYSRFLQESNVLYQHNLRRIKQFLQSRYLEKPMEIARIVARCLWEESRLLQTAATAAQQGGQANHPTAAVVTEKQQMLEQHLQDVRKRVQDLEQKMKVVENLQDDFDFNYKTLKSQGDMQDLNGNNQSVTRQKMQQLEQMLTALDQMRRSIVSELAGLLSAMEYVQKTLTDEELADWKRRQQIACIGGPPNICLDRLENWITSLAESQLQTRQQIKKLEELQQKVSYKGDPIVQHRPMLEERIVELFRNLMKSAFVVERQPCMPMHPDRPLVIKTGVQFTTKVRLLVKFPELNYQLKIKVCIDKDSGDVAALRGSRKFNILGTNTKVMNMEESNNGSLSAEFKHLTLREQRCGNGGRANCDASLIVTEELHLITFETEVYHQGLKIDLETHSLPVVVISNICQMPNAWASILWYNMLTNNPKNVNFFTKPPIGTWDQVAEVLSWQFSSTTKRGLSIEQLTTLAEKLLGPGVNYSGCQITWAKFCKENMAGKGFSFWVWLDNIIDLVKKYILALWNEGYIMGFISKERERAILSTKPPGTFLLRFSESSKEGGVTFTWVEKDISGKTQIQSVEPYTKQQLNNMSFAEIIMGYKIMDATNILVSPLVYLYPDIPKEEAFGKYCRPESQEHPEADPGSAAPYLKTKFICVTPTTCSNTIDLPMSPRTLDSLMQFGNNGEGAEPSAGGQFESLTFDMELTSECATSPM

SMILES | Block of IFN-γ-stimulated Stat1 phosphorylation [1] | EC50 (MCF7) [µM] | EC50 (MDA-MB-231) [µM] | EC50 (MDA-MB-435) [µM] | EC50 (MDA-MB-453) [µM] | EC50 (MDA-MB-468) [µM] | EC50 [2, 7] [µM] | EC50 ([3]; concentrations up to 300 µM, read-out: EC50 apoptosis induction, MDA-MB-453 and MCF7) [µM] | IC50 (Stat3) [µM] | IC50 [4] [µM] | IC50 ([5]; Mus musculus, compound 1 hour, then IL-6 200 ng/ml and IL-6sR 250 ng/ml 30 min, read-out: HTFM IC50, inhibition of IL-6-mediated Stat3 nuclear translocation) [µM] | Block of ligand-mediated nuclear translocation of GFP-Stat3α (in words) ([5]; preincubation with compound) | EC50 ([2]; read-out: EC50 apoptosis induction, mean±SD over three cell lines) [µM] | EC50 ([3]; read-out: EC50 apoptosis induction, mean±SD over MDA-MB-453 and MCF7) [µM] | Apoptosis induction (in words) [6]
CCN1C(=O)C(=Cc2ccc(-c3ccc(C(=O)O)cc3)o2)SC1=S [Cpd30, 4-{5-[(3-ethyl-4-oxo-2-thioxo-1,3-thiazolidin-5-ylidene)methyl]-2-furyl}benzoic acid] | did not | > 300 | 92 | 16.3 | > 300 | 6.42 | 6.4 to 92.2 | > 300 | – | – | – | – | – | – | –
CCN1C(=O)C(=Cc2ccc(-c3cc(C(=O)O)ccc3Cl)o2)C(=O)N(CC)C1=S [Cpd30-12, 4-chloro-3-{5-[(1,3-diethyl-4,6-dioxo-2-thioxotetrahydro-5(2H)-pyrimidinylidene)methyl]-2-furyl}benzoic acid] | blocked Stat1 phosphorylation | – | – | – | – | – | – | – | 114 | 60 | > 300 | not | – | – | –
CC[C@@]1(O)C(=O)OCc2c1cc1n(c2=O)Cc2cc3ccccc3nc2-1 [CAM, camptothecin, reference compound] | – | 0.13 | 1.62 | 1.64 | 0.93 | 0.74 | – | – | – | – | – | – | – | – | –
O=C(O)CSc1cc(NS(=O)(=O)c2ccc(C(=O)O)cc2)c2ccccc2c1O [Cpd188, 4-[({3-[(carboxymethyl)thio]-4-hydroxy-1-naphthyl}amino)sulfonyl]benzoic acid] | did not | 17.2 | 3.96 | 7.01 | 15.5 | 0.73 | 0.7 to 7 | – | – | – | – | – | 3.9 ± 3.1 | 16.4 ± 1.2 | –
COC(=O)Cc1c(C)c2ccc(OCc3ccc(C(=O)OC)cc3)c(C)c2oc1=O [Cpd3-7, methyl 4-({[3-(2-methoxy-2-oxoethyl)-4,8-dimethyl-2-oxo-2H-chromen-7-yl]oxy}methyl)benzoate] | did not | – | – | – | – | – | – | – | – | – | – | – | – | – | neither Cpd3-2 nor Cpd3-7 induced apoptosis
